Measured values published in patent publication US12122763B2, “Substituted piperidines for androgen receptor degradation” (UBIX THERAPEUTICS, INC., priority 2020, dated 2024).

Biological target: T1, Androgen Receptor (AR) protein (Homo sapiens, UniProt P10275, T878A)
T1 construct: endogenous in cells; host or cells: LNCaP
Test: Androgen Receptor (AR) protein degradation assay in LNCaP cells, western blotting
Assay type: cell-based
Conditions: 20 h; for inhibition at 0.01 µM: 0.01 μM compound; for inhibition at 0.1 µM: 0.1 μM compound; for inhibition at 1 µM: 1 μM compound
Outline: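 LNCaP prostate cancer cells were cultured 3 days, then treated with compound for 20 h. Lysates in 1% SDS buffer were normalised by BCA, and 8 μg protein was run on 4–12% Bis-Tris gels. AR was immunoblotted with chemiluminescence, using GAPDH/β-actin as loading controls.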

T1 sequence (P10275 whole entry T878A): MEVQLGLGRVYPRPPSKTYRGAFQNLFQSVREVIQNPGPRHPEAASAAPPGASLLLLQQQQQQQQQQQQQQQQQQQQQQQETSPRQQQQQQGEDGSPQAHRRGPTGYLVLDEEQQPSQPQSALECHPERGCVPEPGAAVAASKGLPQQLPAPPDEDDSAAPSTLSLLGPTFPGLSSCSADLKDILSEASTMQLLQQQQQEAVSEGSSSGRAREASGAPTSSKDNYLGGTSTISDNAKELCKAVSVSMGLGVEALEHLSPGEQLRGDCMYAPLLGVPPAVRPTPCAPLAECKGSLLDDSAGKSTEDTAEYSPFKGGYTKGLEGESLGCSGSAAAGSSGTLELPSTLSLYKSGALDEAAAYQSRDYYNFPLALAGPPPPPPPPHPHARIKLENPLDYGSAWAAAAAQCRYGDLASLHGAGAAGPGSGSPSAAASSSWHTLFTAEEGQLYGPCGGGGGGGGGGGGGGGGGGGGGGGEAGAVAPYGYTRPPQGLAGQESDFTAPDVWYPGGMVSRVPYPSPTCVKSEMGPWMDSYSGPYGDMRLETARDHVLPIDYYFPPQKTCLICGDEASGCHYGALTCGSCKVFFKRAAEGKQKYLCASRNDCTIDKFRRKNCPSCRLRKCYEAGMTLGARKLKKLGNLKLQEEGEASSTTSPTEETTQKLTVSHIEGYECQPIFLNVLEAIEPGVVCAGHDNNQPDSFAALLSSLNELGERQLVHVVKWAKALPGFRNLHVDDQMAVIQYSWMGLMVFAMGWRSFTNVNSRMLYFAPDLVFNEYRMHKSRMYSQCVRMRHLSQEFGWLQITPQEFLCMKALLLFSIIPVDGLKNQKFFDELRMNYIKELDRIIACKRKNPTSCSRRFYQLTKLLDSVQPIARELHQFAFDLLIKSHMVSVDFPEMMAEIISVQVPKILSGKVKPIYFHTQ
T1 sequence (Q96SW2 whole entry partner): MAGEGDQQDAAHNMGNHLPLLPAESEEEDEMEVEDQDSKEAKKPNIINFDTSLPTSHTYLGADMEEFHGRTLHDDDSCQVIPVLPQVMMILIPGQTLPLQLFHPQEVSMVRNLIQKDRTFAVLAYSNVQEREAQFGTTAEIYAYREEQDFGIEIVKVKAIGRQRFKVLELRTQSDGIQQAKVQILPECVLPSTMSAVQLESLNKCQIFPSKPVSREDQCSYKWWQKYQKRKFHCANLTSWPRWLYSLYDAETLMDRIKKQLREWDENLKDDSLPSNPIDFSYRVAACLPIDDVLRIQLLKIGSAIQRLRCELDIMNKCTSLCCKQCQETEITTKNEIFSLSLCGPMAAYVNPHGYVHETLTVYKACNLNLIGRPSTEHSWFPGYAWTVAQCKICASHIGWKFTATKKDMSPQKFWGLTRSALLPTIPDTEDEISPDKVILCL

SMILES | inhibition at 0.01 µM [%] | inhibition at 0.1 µM [%] | inhibition at 1 µM [%]
N#Cc1ccc(N2CCC(C(=O)Nc3ccc(OCCN4CCN(CC5CCN(c6ccc7c(c6)C(=O)N(C6CCC(=O)NC6=O)C7=O)CC5)CC4)cn3)CC2)cc1C(F)(F)F (stereo not drawn) [Example 168, 1-(4-cyano-3-(trifluoromethyl)phenyl)-N-(5-(2-(4-((1-(2-(2,6-dioxopiperidin-3-yl)-1,3-dioxoisoindolin-5-yl)piperidin-4-yl)methyl)piperazin-1-yl)ethoxy)pyridin-2-yl)piperidine-4-carboxamide] | 73 | 97 | 99
N#Cc1ccc(N2CCC(C(=O)Nc3ccc(OC4CCN(CC5CCN(c6cc7c(cc6F)C(=O)N(C6CCC(=O)NC6=O)C7=O)CC5)CC4)cn3)CC2)cc1C(F)(F)F (stereo not drawn) [Example 170, 1-(4-cyano-3-(trifluoromethyl)phenyl)-N-(5-((1-((1-(2-(2,6-dioxopiperidin-3-yl)-6-fluoro-1,3-dioxoisoindolin-5-yl)piperidin-4-yl)methyl)piperidin-4-yl)oxy)pyridin-2-yl)piperidine-4-carboxamide] | 52 | 90 | 97
N#Cc1ccc(N2CCC(C(=O)Nc3ccc(OC4CCN(CC5CN(c6ccc7c(c6)C(=O)N(C6CCC(=O)NC6=O)C7=O)C5)CC4)cn3)CC2)cc1C(F)(F)F (stereo not drawn) [Example 171, 1-(4-cyano-3-(trifluoromethyl)phenyl)-N-(5-((1-((1-(2-(2,6-dioxopiperidin-3-yl)-1,3-dioxoisoindolin-5-yl)azetidin-3-yl)methyl)piperidin-4-yl)oxy)pyridin-2-yl)piperidine-4-carboxamide] | 69 | 93 | 95
CC1(CN2CCC(Oc3ccc(NC(=O)C4CCN(c5ccc(C#N)c(C(F)(F)F)c5)CC4)nc3)CC2)CN(c2ccc3c(c2)C(=O)N(C2CCC(=O)NC2=O)C3=O)C1 (stereo not drawn) [Example 172, 1-(4-cyano-3-(trifluoromethyl)phenyl)-N-(5-((1-((1-(2-(2,6-dioxopiperidin-3-yl)-1,3-dioxoisoindolin-5-yl)-3-methylazetidin-3-yl)methyl)piperidin-4-yl)oxy)pyridin-2-yl)piperidine-4-carboxamide] | 56 | 91 | 91
N#Cc1ccc(N2CCC(C(=O)Nc3ccc(OC4CN(CC5CCN(c6ccc7c(c6)C(=O)N(C6CCC(=O)NC6=O)C7=O)CC5)C4)cn3)CC2)cc1C(F)(F)F (stereo not drawn) [Example 173, 1-(4-cyano-3-(trifluoromethyl)phenyl)-N-(5-((1-((1-(2-(2,6-dioxopiperidin-3-yl)-1,3-dioxoisoindolin-5-yl)piperidin-4-yl)methyl)azetidin-3-yl)oxy)pyridin-2-yl)piperidine-4-carboxamide] | 58 | 90 | 92
N#Cc1ccc(N2CCC(C(=O)Nc3ccc(OCC4CCN(CC5CCN(c6ccc7c(c6)C(=O)N(C6CCC(=O)NC6=O)C7=O)CC5)CC4)cn3)CC2)cc1C(F)(F)F (stereo not drawn) [Example 174, 1-(4-cyano-3-(trifluoromethyl)phenyl)-N-(5-((1-((1-(2-(2,6-dioxopiperidin-3-yl)-1,3-dioxoisoindolin-5-yl)piperidin-4-yl)methyl)piperidin-4-yl)methoxy)pyridin-2-yl)piperidine-4-carboxamide] | 73 | 91 | 95
N#Cc1ccc(N2CCC(C(=O)Nc3ccc(OCCC4CCN(CC5CCN(c6ccc7c(c6)C(=O)N(C6CCC(=O)NC6=O)C7=O)CC5)CC4)cn3)CC2)cc1C(F)(F)F (stereo not drawn) [Example 175, 1-(4-cyano-3-(trifluoromethyl)phenyl)-N-(5-(2-(1-((1-(2-(2,6-dioxopiperidin-3-yl)-1,3-dioxoisoindolin-5-yl)piperidin-4-yl)methyl)piperidin-4-yl)ethoxy)pyridin-2-yl)piperidine-4-carboxamide] | 70 | 95 | 97
N#Cc1ccc(N2CCC(C(=O)Nc3ccc(OCCN4CCN(CC(=O)Nc5cccc(NC6CCC(=O)NC6=O)c5)CC4)cn3)CC2)cc1C(F)(F)F (stereo not drawn) [Example 176, 1-(4-cyano-3-(trifluoromethyl)phenyl)-N-(5-(2-(4-(2-((3-((2,6-dioxopiperidin-3-yl)amino)phenyl)amino)-2-oxoethyl)piperazin-1-yl)ethoxy)pyridin-2-yl)piperidine-4-carboxamide] | -2 | -22 | 16
N#Cc1ccc(N2CCC(C(=O)Nc3ccc(N4CCC(CN5CCN(CC(=O)Nc6cccc(NC7CCC(=O)NC7=O)c6)CC5)CC4)cn3)CC2)cc1C(F)(F)F (stereo not drawn) [Example 177, 1-(4-cyano-3-(trifluoromethyl)phenyl)-N-(5-(4-((4-(2-((3-((2,6-dioxopiperidin-3-yl)amino)phenyl)amino)-2-oxoethyl)piperazin-1-yl)methyl)piperidin-1-yl)pyridin-2-yl)piperidine-4-carboxamide] | 14 | 37 | 35
N#Cc1ccc(N2CCC(C(=O)Nc3ccc(OCCN4CCC(Oc5ccc6c(c5)C(=O)N(C5CCC(=O)NC5=O)C6=O)CC4)cn3)CC2)cc1C(F)(F)F (stereo not drawn) [Example 178, 1-(4-cyano-3-(trifluoromethyl)phenyl)-N-(5-(2-(4-((2-(2,6-dioxopiperidin-3-yl)-1,3-dioxoisoindolin-5-yl)oxy)piperidin-1-yl)ethoxy)pyridin-2-yl)piperidine-4-carboxamide] | 23 | 64 | 87
CC1(CN2CCN(CC3CCN(c4ccc5c(c4)C(=O)N(C4CCC(=O)NC4=O)C5=O)CC3)CC2)CN(c2ccc(NC(=O)C3CCN(c4ccc(C#N)c(C(F)(F)F)c4)CC3)nc2)C1 (stereo not drawn) [Example 179, 1-(4-cyano-3-(trifluoromethyl)phenyl)-N-(5-(3-((4-((1-(2-(2,6-dioxopiperidin-3-yl)-1,3-dioxoisoindolin-5-yl)piperidin-4-yl)methyl)piperazin-1-yl)methyl)-3-methylazetidin-1-yl)pyridin-2-yl)piperidine-4-carboxamide] | 73 | 98 | 97
CC1(CN2CCC(COc3ccc4c(c3)C(=O)N(C3CCC(=O)NC3=O)C4=O)CC2)CN(c2ccc(NC(=O)C3CCN(c4ccc(C#N)c(C(F)(F)F)c4)CC3)nc2)C1 (stereo not drawn) [Example 180, 1-(4-cyano-3-(trifluoromethyl)phenyl)-N-(5-(3-((4-(((2-(2,6-dioxopiperidin-3-yl)-1,3-dioxoisoindolin-5-yl)oxy)methyl)piperidin-1-yl)methyl)-3-methylazetidin-1-yl)pyridin-2-yl)piperidine-4-carboxamide] | 36 | 97 | 98
N#Cc1ccc(N2CCC(C(=O)Nc3ccc(OCC4CCN(CC5CCN(c6cc7c(cc6F)C(=O)N(C6CCC(=O)NC6=O)C7=O)CC5)CC4)cn3)CC2)cc1C(F)(F)F (stereo not drawn) [Example 181, 1-(4-cyano-3-(trifluoromethyl)phenyl)-N-(5-((1-((1-(2-(2,6-dioxopiperidin-3-yl)-6-fluoro-1,3-dioxoisoindolin-5-yl)piperidin-4-yl)methyl)piperidin-4-yl)methoxy)pyridin-2-yl)piperidine-4-carboxamide] | 75 | 93 | 97
